According to article PMC12198407, “Preclinical and first-in-human of purinostat mesylate, a novel selective HDAC I/IIb inhibitor, in relapsed/refractory multiple myeloma and lymphoma” (Signal Transduction and Targeted Therapy, 2025):
Like-named read-outs stand apart in the source and are kept apart here.

Legend:
[1] = biological target: human ether-à-go-go-related gene (hERG) channel (Homo sapiens, UniProt Q12809); assay: hERG inhibition; type: biochemical
[2] = system: 8 MM and 8 lymphoma cell lines; assay: Antiproliferation assay, cell line panel (CCK8); type: cell-based; conditions: Homo sapiens; 72 h, all 16 cell lines
Method: (§1) PM, panobinostat, Pom and DXM were dissolved in DMSO and stored at -20°C freezer. Cells were seeded at a density of 1.0-3.0 × 10^4 cells/well/100 μL in 96-well plates. After overnight incubation, cells were treated with the drug-containing culture medium for 24, 48, or 72 hours, and cell viability was measured using CCK8 (Oriscience, Chengdu, China) at the indicated time points with Biotek Cytation 3 at a wavelength of 450 nm. The IC50 values were calculated using GraphPad Prism 9.4.1, and Calcusyn 2.0 software was employed to calculate the CI values.

AMO1 = assay: Cell viability CCK8; type: cell-based; conditions: Homo sapiens; AMO1, 72 h; no unit in table; read-out: Antiproliferative activity IC50
Method: as §1

SUDHL-4 = assay: Cell viability CCK8; type: cell-based; conditions: Homo sapiens, SU-DHL-4; SUDHL-4, 72 h; no unit in table; read-out: Antiproliferative activity IC50
Method: as §1

clinical = type: in vivo, human
Method: To analyze the pharmacokinetics (PK) of PM, serial blood samples were collected at pre-dose and at 5 minutes, 10 minutes, 20 minutes, 30 minutes, 32 minutes, 35 minutes, 45 minutes, 1 hour, 2 hours, 4 hours, 8 hours, and 12 hours post-dose on day 1. During the multiple dosing phase, blood samples were collected at pre-dose on day 15, and 5 minutes, 10 minutes, 20 minutes, 30 minutes, 32 minutes, 35 minutes, 45 minutes, 1 hour, 2 hours, 4 hours, 8 hours, and 12 hours post-dose on day 15. PM plasma concentrations were determined using ultra performance liquid chromatography (UPLC) coupled with tandem mass spectrometry (MS-MS) detection. Pharmacokinetic parameters, including Tmax, Cmax, AUC0-t, AUC0-∞, t1/2, MRT, CL, Ke, and V, were calculated using the non-compartmental analysis (NCA) method with the professional pharmacokinetic software Phoenix WinNonlin (Version 8.1). Dose proportionality was assessed in single-dose experiments, while drug accumulation was evaluated in multiple-dose experiments.

rabbit red blood cells = assay: In vitro hemolytic test; conditions: 0.204 mg/mL
Method: This experiment included a negative control group (0.9% sodium chloride injection), a positive control group (sterile water for injection), a blank formulation group of injectable Purinostat Mesylate with five dosage levels (0.1, 0.2, 0.3, 0.4, and 0.5 mL/test tube at a concentration of 3.06 mg/mL, which is the same as the concentration of the excipient in the injectable Purinostat Mesylate group), and five dosage levels of injectable Purinostat Mesylate (0.1, 0.2, 0.3, 0.4, and 0.5 mL/test tube at a concentration of 0.204 mg/mL, the maximum intended clinical concentration). A 2% red blood cell suspension was mixed with 0.9% sodium chloride injection, sterile water for injection, the blank formulation of injectable Purinostat Mesylate, and injectable Purinostat Mesylate in the specified proportions, and then placed in a constant temperature incubator at 37±0.5°C. […] Each group was measured in parallel three times.

CHL cells = assay: In vitro chromosomal aberration test; type: cell-based; conditions: 30–1000 µg/mL 4 h ±S9; 3.75–30 µg/mL 24 h
Method: This experiment employed two methods: one without the S9 metabolic activation system and one with the S9 metabolic activation system. The method without the S9 metabolic activation system utilized two exposure times of 4 hours and 24 hours, while the method with the S9 metabolic activation system used a 4-hour exposure time. The test was conducted using a 2% dosing volume ratio. Under the 4-hour exposure conditions, the final concentrations of Purinostat Mesylate were set at 30, 100, 300, and 1000 µg/mL; under the 24-hour exposure conditions, the final concentrations were set at 3.75, 7.5, 15, and 30 µg/mL. Additionally, a solvent control group (DMSO) and a positive control group (administering the appropriate positive agent) were included. After the culture period for each concentration group, cells were collected and prepared for microscopy. After Giemsa staining, 1000 cells were observed under a microscope to record the number of cells in the metaphase stage and calculate the mitotic index inhibition rate for each group. For chromosome aberration assessment, 200 metaphase cells were observed, and the chromosome aberration rate was calculated for each group.

[3] = Fertility, embryo and fetal developmental toxicity test; set-up: species or system SD rats; conditions: SD, rat, in vivo, intravenous
Method: Male SD rats were administered intravenous injections of Purinostat Mesylate at doses of 3, 10, and 20 mg/kg every two days from 4 weeks prior to mating until the end of mating. Female SD rats received the same treatment from 2 weeks prior to mating until day 7 of pregnancy. The no observed adverse effect level (NOAEL) for males was less than 3 mg/kg, while for females it was 20 mg/kg. The NOAEL for reproductive toxicity in both male and female rats was 3 mg/kg, and the NOAEL for early embryonic development was less than 3 mg/kg.

[4] = Pharmacokinetics, intravenous; type: in vivo, SD rats; conditions: for AUC(0-t) / half-life / Vd / clearance / C0: both sexes, SD, rat, plasma, iv; for Vd: read-out: Vdss; for clearance: read-out: plasma clearance (CL); for increase in AUC0-last for tenfold increase in dose: 1 to 10 mg/kg
Method: After a single intravenous injection of Purinostat Mesylate at doses of 1, 3, and 10 mg/kg, the average initial concentrations (C0) in male and female SD rats were 736 ± 66.5, 2880 ± 566, and 11500 ± 1790 ng/mL, respectively. […] The half-lives (T1/2) were 3.79 ± 0.511, 4.21 ± 0.248, and 6.24 ± 1.57 min, respectively. The area under the curve (AUC0-last) values were 55.3 ± 3.68, 248 ± 36.1, and 1280 ± 122 ng.h/mL, respectively. After daily intravenous injections of 3 mg/kg Purinostat Mesylate for 7 consecutive days, the average AUC0-last on day 7 for both male and female rats was 332 ± 43.6 ng.h/mL.

CYP2B6 = assay: CYP induction, cryopreserved human liver cells; type: in vitro ADME; conditions: 0.0500, 0.500, 5.00 µM; three donors

human ether-à-go-go-related gene (hERG) channel, sequence (Q12809 whole entry): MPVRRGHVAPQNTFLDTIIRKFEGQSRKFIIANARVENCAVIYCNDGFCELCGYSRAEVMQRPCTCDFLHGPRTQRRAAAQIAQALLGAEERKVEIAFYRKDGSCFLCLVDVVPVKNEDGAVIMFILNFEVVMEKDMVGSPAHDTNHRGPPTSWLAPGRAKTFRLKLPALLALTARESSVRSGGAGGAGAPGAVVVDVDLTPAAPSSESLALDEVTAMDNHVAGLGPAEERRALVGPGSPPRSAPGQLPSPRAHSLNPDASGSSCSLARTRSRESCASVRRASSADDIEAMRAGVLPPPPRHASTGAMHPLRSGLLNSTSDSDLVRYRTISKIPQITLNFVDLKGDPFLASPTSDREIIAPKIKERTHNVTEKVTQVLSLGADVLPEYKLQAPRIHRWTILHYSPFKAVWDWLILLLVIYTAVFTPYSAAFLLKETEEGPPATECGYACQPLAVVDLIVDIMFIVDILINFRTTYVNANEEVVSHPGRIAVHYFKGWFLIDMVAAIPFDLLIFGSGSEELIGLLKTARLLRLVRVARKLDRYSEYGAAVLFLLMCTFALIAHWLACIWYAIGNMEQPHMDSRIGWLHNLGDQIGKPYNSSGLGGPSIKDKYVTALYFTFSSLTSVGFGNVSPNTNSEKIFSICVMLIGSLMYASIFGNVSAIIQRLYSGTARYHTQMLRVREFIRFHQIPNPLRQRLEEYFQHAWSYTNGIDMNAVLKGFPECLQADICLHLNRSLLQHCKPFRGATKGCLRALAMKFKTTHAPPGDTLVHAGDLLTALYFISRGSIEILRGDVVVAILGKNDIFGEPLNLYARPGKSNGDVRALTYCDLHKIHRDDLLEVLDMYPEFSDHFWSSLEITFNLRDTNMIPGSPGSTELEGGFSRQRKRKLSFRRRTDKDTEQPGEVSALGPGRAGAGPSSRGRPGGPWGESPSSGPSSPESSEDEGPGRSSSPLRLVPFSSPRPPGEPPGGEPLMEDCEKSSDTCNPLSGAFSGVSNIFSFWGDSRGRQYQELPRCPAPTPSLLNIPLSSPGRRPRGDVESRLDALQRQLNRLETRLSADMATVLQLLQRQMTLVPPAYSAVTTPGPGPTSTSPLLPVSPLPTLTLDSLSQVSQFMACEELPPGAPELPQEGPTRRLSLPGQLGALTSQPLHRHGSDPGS

CN(Cc1nc2c(N3CCOCC3)nc(-c3ccc(N)cc3)nc2n1C)c1ncc(C(=O)NO)cn1.CS(=O)(=O)O [PM, 2-(((2-(4-Aminophenyl)-9-methyl-6-(4-morpholinyl)-9H-purine-8-yl)methyl)methylamino)-N-hydroxy-5-pyrimidine-carboxamide Mesylate]
IC50 [1]: > 100 µM
IC50 [2]: < 5 nM
IC50 (AMO1): 1.78 ± 0.14 nM
IC50 (SUDHL-4): 0.73 ± 0.05 nM
accumulation index for AUC0–∞ (multiple doses/single dose) (clinical; 1.2 to 15.0 mg/m^2): 0.97–1.17
accumulation index for Cmax (multiple doses/single dose) (clinical; 1.2 to 15.0 mg/m^2): 0.96 to 1.32
half-life (clinical; human, plasma, iv, single (Day 1) intravenous, range over doses, read-out: half-life (t1/2)): 138 to 211 min
in vitro hemolytic test outcome (rabbit red blood cells): negative
chromosomal aberration test result (CHL cells): negative
NOAEL [3]: < 3 mg/kg
NOAEL ([3]; both sexes): 3 mg/kg
NOAEL ([3]; female): 20 mg/kg
NOAEL ([3]; male): < 3 mg/kg
AUC(0-t) ([4]; 1 mg/kg, read-out: AUC0-last): 55.3 ± 3.68 ng·h/mL
half-life ([4]; 1 mg/kg, read-out: T1/2): 3.79 ± 0.511 min
Vd ([4]; 1 mg/kg): 1.43 ± 0.135 L/kg
clearance ([4]; 1 mg/kg): 301 ± 20 mL/min/kg
AUC(0-t) ([4]; 3 mg/kg, 3 mg/kg daily i.v. for 7 days, read-out: AUC0-last on day 7): 332 ± 43.6 ng·h/mL
AUC(0-t) ([4]; 3 mg/kg, read-out: AUC0-last): 248 ± 36.1 ng·h/mL
half-life ([4]; 3 mg/kg, read-out: T1/2): 4.21 ± 0.248 min
Vd ([4]; 3 mg/kg): 1.13 ± 0.241 L/kg
clearance ([4]; 3 mg/kg): 205 ± 36.4 mL/min/kg
AUC(0-t) ([4]; 10 mg/kg, read-out: AUC0-last): 1280 ± 122 ng·h/mL
half-life ([4]; 10 mg/kg, read-out: T1/2): 6.24 ± 1.57 min
Vd ([4]; 10 mg/kg): 0.948 ± 0.125 L/kg
clearance ([4]; 10 mg/kg): 131 ± 12.8 mL/min/kg
C0 ([4]; 1 mg/kg single i.v.): 736 ± 66.5 ng/mL
C0 ([4]; 3 mg/kg single i.v.): 2880 ± 566 ng/mL
C0 ([4]; 10 mg/kg single i.v.): 11500 ± 1790 ng/mL
half-life ([4]; single i.v., range over doses, read-out: half-life): 3.79 to 6.24 min
increase in AUC0-last for tenfold increase in dose ([4]; female rats): 24.4 fold
increase in AUC0-last for tenfold increase in dose ([4]; male rats): 21.7 fold
induction of CYP2B6 (CYP2B6): did not act as an inducer
